PMC9691367, “The PROTAC selectively degrading Bcl-xL represents a novel Hedgehog pathway inhibitor with capacity of combating resistance to Smoothened inhibitors while sparing bone growth” (Theranostics, 2022)
Several values for one entry are separate records, joined by “and”; a condition that tells them apart may be missing. Equal entries are not always repeated. Where two headings read alike, the source gives them in different places.

Key:
Bcl-2 = Bcl-2 (Homo sapiens, UniProt P10415); test: Competitive fluorescence polarization assay, Bcl-2 / FAM-Bax; assay type: binding; details: Bcl-2 100 nM, FAM-Bax 5 nM
Procedure: (§1) Competitive fluorescence polarization assays were carried out in black-walled plates in assay buffer (20 mM Na2HPO4 ·12H2O, 20 mM NaH2PO4·12H2O, 1 mM EDTA, 50 mM NaCl, 0.05% PF-68). The use of protein/peptide probe pairs was as follows: Bcl-xL (5 nM) and FAM-Bad (5 nM), Bcl-2 (100 nM) and FAM-Bax (5 nM), Mcl-1 (100 nM) and FAM-Bim (5 nM). Assay buffer, proteins, drugs, and peptides were added to the assay plates sequentially. The assay plates were slightly shaken for 3 min and incubated for 30 min at room temperature. The fluorescence polarization was measured on a Synergy 2 reader (BioTek).

Mcl-1 = Mcl-1 (Homo sapiens, UniProt Q07820); test: Competitive fluorescence polarization assay, Mcl-1 / FAM-Bim; assay type: binding; details: Mcl-1 100 nM, FAM-Bim 5 nM
Procedure: as §1

[1] = system: Hh pathway (Gli-luciferase) in light II cells; test: Dual luciferase reporter assay, Gli-luciferase provoked by SAG in light II cells; assay type: cell-based; details: SAG 100 nM, 36 h, read-out: IC50 value inhibiting the Gli-luciferase activity provoked by SAG
Procedure: Cells seeded in 96-well plates were treated with various treatments as indicated. The luciferase activity in the cell lysates was measured using Dual-Luciferase Reporter Assay System (Promega, Madison, WI, USA) according to the manufacturer's instructions in a luminometer (Molecular Devices, Sunnyvale, CA). The firefly luciferase values were normalized to Renilla values.

[2] = Pharmacokinetic study in male ICR mice; assay type: in vivo, mouse; details: for MRT last: read-out: MRT(0-t); for MRT inf: read-out: MRT(0-∞)
Procedure: Standard pharmacokinetic (PK) studies were conducted using male ICR Mice. A single 2 mg/kg intravenous (i.v.) injection, 10 mg/kg intraperitoneal (i.p.) injection or 10 mg/kg oral (p.o.) administration of SIAIS361034 was evaluated. Plasma concentrations of SIAIS361034 at each of the 7 time points (0.25 h, 0.5 h, 1 h, 2 h, 4 h, 8 h, and 24 h post dosing) are the average values from 3 animals.

platelets = test: Platelet toxicity assay in C57BL/6J mice; assay type: in vivo, mouse; details: 8 h and 24 h
Source text: Blood was collected at different time points via retro-orbital bleeding in anticoagulation tube. Platelets or different blood cells were enumerated using BM800 blood analyzer (Bowlinman Sunshine).

[3] = system: bone growth of young mice; test: Bone growth of young mice (body weight, Micro-CT, H&E, IHC); assay type: in vivo, mouse
Procedure: Skeleton Micro-CT images of mice were taken under anesthesia. The femurs were fixed and stored in 4% PFA at 4 °C. Mice and femurs were scanned using Inveon PET-CT (Siemens). Bone tissues were computed with Inveon Acquisition Workplace (IAW). Image data were visualized and analyzed by Inveon Viewer.
Femurs were fixed in 4% PFA and decalcified in 14% EDTA for 2 weeks at 4 °C. Bone tissues were embedded in paraffin. Thin sections were stained with hematoxylin and eosin (H&E) according to the manufacturer's instructions. For immunohistochemistry (IHC), paraffin-embedded sections of femurs were baked at 60 °C for 20 min, deparaffinized by xylene for 25 min, rehydrated through ethanol series, and incubated with citrate buffer at 95 °C for 20 min for antigen retrieval. Sections were incubated with the primary antibodies as indicated overnight at 4 °C, followed by goat anti-rabbit secondary antibody. The primary antibodies used in this study include Bcl-xL (1:2000, ab178844, Abcam) and Gli1 (1:100, 101156-T10, Sino Biological).

[4] = male ICR mice, 2 mg/kg IV, individual animals (Mouse 1-3), 2 mg/kg
[5] = male ICR mice, 10 mg/kg IP, individual animals (Mouse 1-3), 10 mg/kg
[6] = male ICR mice, 10 mg/kg PO, individual animals (Mouse 1, 3; Mouse 2 NA), 10 mg/kg
[7] = male ICR mice, 10 mg/kg PO, individual animals (Mouse 1-3), 10 mg/kg
[8] = male, ICR, mouse, plasma, ip, 10 mg/kg, male ICR mice, 10 mg/kg IP, individual animals (Mouse 1-3)
[9] = male, ICR, mouse, plasma, ip, 10 mg/kg, male ICR mice, 10 mg/kg IP, mean of 3 animals
[10] = male, ICR, mouse, plasma, iv, 2 mg/kg, male ICR mice, 2 mg/kg IV, individual animals (Mouse 1-3)
[11] = male, ICR, mouse, plasma, iv, 2 mg/kg, male ICR mice, 2 mg/kg IV, mean of 3 animals
[12] = male, ICR, mouse, plasma, po, 10 mg/kg, male ICR mice, 10 mg/kg PO, mean

Sequence of Mcl-1 (Q07820 whole entry, species assumed): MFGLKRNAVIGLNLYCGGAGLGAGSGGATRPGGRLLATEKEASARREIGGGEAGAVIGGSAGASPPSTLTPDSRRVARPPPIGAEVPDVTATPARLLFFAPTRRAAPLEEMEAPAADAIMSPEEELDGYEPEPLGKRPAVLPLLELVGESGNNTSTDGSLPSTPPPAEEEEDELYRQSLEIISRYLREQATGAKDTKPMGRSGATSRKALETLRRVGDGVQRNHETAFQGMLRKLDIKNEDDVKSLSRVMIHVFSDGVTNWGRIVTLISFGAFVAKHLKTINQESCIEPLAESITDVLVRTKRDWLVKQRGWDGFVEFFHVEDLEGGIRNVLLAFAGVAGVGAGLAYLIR
Sequence of Bcl-2 (P10415 whole entry, species assumed): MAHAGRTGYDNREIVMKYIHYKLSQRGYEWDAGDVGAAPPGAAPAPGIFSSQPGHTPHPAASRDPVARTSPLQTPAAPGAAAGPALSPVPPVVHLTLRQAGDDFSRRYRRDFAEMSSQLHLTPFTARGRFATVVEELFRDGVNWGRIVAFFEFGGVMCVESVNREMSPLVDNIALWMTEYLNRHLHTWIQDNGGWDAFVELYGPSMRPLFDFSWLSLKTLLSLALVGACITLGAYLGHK

In the case of CC1(C)CCC(c2ccc(Cl)cc2)=C(CN2CCN(c3ccc(C(=O)NS(=O)(=O)c4ccc(NCCCN5CCN(CCCC#Cc6cccc7c6CN(C6CCC(=O)NC6=O)C7=O)CC5)c(S(=O)(=O)C(F)(F)F)c4)cc3)CC2)C1 (stereo not shown) [SIAIS361034], the Ki (Bcl-2) is reported as 15.1 nM, the Ki (Mcl-1) is reported as greater than 10000 nM and the IC50 [1] is reported as 120 nM. The “AUC(0-t)” value [2, 4] was 6203 ng·h/mL and 4263 ng·h/mL, the “AUC(0-∞)” value [2, 4] was 6222 ng·h/mL and 4305 ng·h/mL and the C0 [2, 4] was 34215 ng/mL and 79513 ng/mL and 43287 ng/mL. For the same compound, the Cl [2, 4] was 5.35 mL/min/kg and 7.75 mL/min/kg, the Cmax [2, 4] was 17900 ng/mL and 13200 ng/mL and the “MRT(0-t)” value [2, 4] was 0.30 h and 0.31 h. For the same compound, the “MRT(0-∞)” value [2, 4] was 0.40 h and 0.42 h, the T1/2 [2, 4] was 1.79 h and 6.38 h and 2.29 h and the Vss [2, 4] was 0.13 L/kg and 0.193 L/kg. The Vz [2, 4] was 2.957 L/kg and 1.535 L/kg, the “AUC(0-t)” value [2, 5] was 20871 ng·h/mL and 15558 ng·h/mL and the “AUC(0-∞)” value [2, 5] was 22061 ng·h/mL and 16141 ng·h/mL. For the same compound, the Cmax [2, 5] was 9700 ng/mL and 4920 ng/mL, the F [2, 5] was 71.4% and 96.4% and 70.5% and the “MRT(0-t)” value [2, 5] was 5.16 h and 4.24 h. The “MRT(0-∞)” value [2, 5] was 6.68 h and 5.22 h, the T1/2 [2, 5] was 5.23 h and 5.94 h and the Tmax ([2]; male ICR mice, 10 mg/kg IP, individual animals (Mouse 1-3; 0.50 twice), 10 mg/kg) was 0.50 h. For the same compound, the “AUC(0-∞)” value [2, 6] was 305 ng·h/mL and 111 ng·h/mL, the “MRT(0-∞)” value [2, 6] was 10.30 h and 2.82 h and the T1/2 [2, 6] was 8.98 h and 2.39 h. The F ([2]; male ICR mice, 10 mg/kg PO, individual animals (Mouse 1, 3; Mouse 2 and mean NA), 10 mg/kg) was 1.33% and 0.484%, the “AUC(0-t)” value [2, 7] was 265 ng·h/mL and 213 ng·h/mL and 101 ng·h/mL and the Cmax [2, 7] was 54.9 ng/mL and 49.1 ng/mL. For the same compound, the “MRT(0-t)” value [2, 7] was 6.29 h and 2.88 h and 2.01 h, the Tmax ([2]; male ICR mice, 10 mg/kg PO, individual animals (Mouse 1-3; 1.00 twice), 10 mg/kg) was 2.00 h and the AUC(0-inf) [2, 8] was 16300 ng·h/mL. For the same compound, the half-life [2, 8] was 6.44 h, the AUC(0-t) ([2]; male, ICR, mouse, plasma, ip, 10 mg/kg, male ICR mice, 10 mg/kg IP, individual animals (Mouse 1-3), read-out: AUC(0-t)) was 15500 ng·h/mL and the Cmax ([2]; male, ICR, mouse, plasma, ip, 10 mg/kg, male ICR mice, 10 mg/kg IP, individual animals (Mouse 1-3), read-out: Cmax) was 7630 ng/mL. It also gave an MRT last [2, 8] of 3.84 h, an MRT inf [2, 8] of 5.25 h and a Tmax ([2]; male, ICR, mouse, plasma, ip, 10 mg/kg, male ICR mice, 10 mg/kg IP, individual animals (Mouse 1-3; 0.50 twice), read-out: Tmax) of 1 h. For the same compound, the AUC(0-inf) [2, 9] was 18200 ng·h/mL, the bioavailability [2, 9] was 79.4% and the half-life [2, 9] was 5.87 h. The AUC(0-t) ([2]; male, ICR, mouse, plasma, ip, 10 mg/kg, male ICR mice, 10 mg/kg IP, mean of 3 animals, read-out: AUC(0-t)) was 17300 ng·h/mL, the Cmax ([2]; male, ICR, mouse, plasma, ip, 10 mg/kg, male ICR mice, 10 mg/kg IP, mean of 3 animals, read-out: Cmax) was 7420 ng/mL and the MRT last [2, 9] was 4.41 h. It also gave an MRT inf [2, 9] of 5.72 h, a Tmax ([2]; male, ICR, mouse, plasma, ip, 10 mg/kg, male ICR mice, 10 mg/kg IP, mean of 3 animals, read-out: Tmax) of 0.67 h and an AUC(0-inf) [2, 10] of 3200 ng·h/mL. For the same compound, the clearance [2, 10] was 10.4 mL/min/kg, the AUC(0-t) ([2]; male, ICR, mouse, plasma, iv, 2 mg/kg, male ICR mice, 2 mg/kg IV, individual animals (Mouse 1-3), read-out: AUC(0-t)) was 3190 ng·h/mL and the Cmax ([2]; male, ICR, mouse, plasma, iv, 2 mg/kg, male ICR mice, 2 mg/kg IV, individual animals (Mouse 1-3), read-out: Cmax) was 10300 ng/mL. The MRT last [2, 10] was 0.22 h, the MRT inf [2, 10] was 0.26 h and the Vd ([2]; male, ICR, mouse, plasma, iv, 2 mg/kg, male ICR mice, 2 mg/kg IV, individual animals (Mouse 1-3), read-out: Vss) was 0.163 L/kg. It also gave a Vd ([2]; male, ICR, mouse, plasma, iv, 2 mg/kg, male ICR mice, 2 mg/kg IV, individual animals (Mouse 1-3), read-out: Vz) of 1.61 L/kg, a Tmax ([2]; male, ICR, mouse, plasma, iv, 2 mg/kg, male ICR mice, 2 mg/kg IV, individual animals (Mouse 1-3, same value), read-out: Tmax) of 0.083 h and an AUC(0-inf) [2, 11] of 4580 ng·h/mL. It also gave a clearance [2, 11] of 7.83 mL/min/kg, a half-life [2, 11] of 3.49 h and an AUC(0-t) ([2]; male, ICR, mouse, plasma, iv, 2 mg/kg, male ICR mice, 2 mg/kg IV, mean of 3 animals, read-out: AUC(0-t)) of 4550 ng·h/mL. For the same compound, the C0 ([2]; male, ICR, mouse, plasma, iv, 2 mg/kg, male ICR mice, 2 mg/kg IV, mean of 3 animals, read-out: C0) was 52300 ng/mL, the Cmax ([2]; male, ICR, mouse, plasma, iv, 2 mg/kg, male ICR mice, 2 mg/kg IV, mean of 3 animals, read-out: Cmax) was 13800 ng/mL and the MRT last [2, 11] was 0.28 h. For the same compound, the MRT inf [2, 11] was 0.36 h, the Tmax ([2]; male, ICR, mouse, plasma, iv, 2 mg/kg, male ICR mice, 2 mg/kg IV, mean of 3 animals, read-out: Tmax) was 0.083 h and the Vd ([2]; male, ICR, mouse, plasma, iv, 2 mg/kg, male ICR mice, 2 mg/kg IV, mean of 3 animals, read-out: Vss) was 0.162 L/kg. For the same compound, the Vd ([2]; male, ICR, mouse, plasma, iv, 2 mg/kg, male ICR mice, 2 mg/kg IV, mean of 3 animals, read-out: Vz) was 2.03 L/kg, the Cmax ([2]; male, ICR, mouse, plasma, po, 10 mg/kg, male ICR mice, 10 mg/kg PO, individual animals (Mouse 1-3), read-out: Cmax) was 50.9 ng/mL and the Tmax ([2]; male, ICR, mouse, plasma, po, 10 mg/kg, male ICR mice, 10 mg/kg PO, individual animals (Mouse 1-3; 1.00 twice), read-out: Tmax) was 1 h. The AUC(0-inf) [2, 12] was 208 ng·h/mL, the half-life [2, 12] was 5.68 h and the AUC(0-t) ([2]; male, ICR, mouse, plasma, po, 10 mg/kg, male ICR mice, 10 mg/kg PO, mean of 3 animals, read-out: AUC(0-t)) was 193 ng·h/mL. It also gave a Cmax ([2]; male, ICR, mouse, plasma, po, 10 mg/kg, male ICR mice, 10 mg/kg PO, mean of 3 animals, read-out: Cmax) of 51.6 ng/mL, an MRT last ([2]; male, ICR, mouse, plasma, po, 10 mg/kg, male ICR mice, 10 mg/kg PO, mean of 3 animals) of 3.73 h and a Tmax ([2]; male, ICR, mouse, plasma, po, 10 mg/kg, male ICR mice, 10 mg/kg PO, mean of 3 animals, read-out: Tmax) of 1.33 h. The MRT inf [2, 12] was 6.56 h, the “pharmacokinetic property, oral” value ([2]; mice, 10 mg/kg p.o.) was “poor pharmacokinetic property” and the plasma exposure ([2]; mice, single 10 mg/kg i.p. or 2 mg/kg i.v., over 24 h) was “good plasma exposure”. For the same compound, the number of platelets (platelets; SIAIS361034 single i.p. 50 and 100 mg/kg, ABT-263 single p.o. 100 mg/kg) was “no appreciable alterations”, the “other blood cells (neutrophils, red blood cells)” value (platelets; single i.p. 50 and 100 mg/kg) was “no influence” and the “columnar organization of chondrocytes in the growth plate (H&E)” value ([3]; cross sections of the femur, mice treated P12 to P16) was “not destroyed”. The “skeleton (Micro-CT)” value ([3]; mice at 6 weeks of age, treated P12 to P16) was “no abnormalities in the skeleton”, the “growth plate of femurs (Micro-CT) compared with Vehicle” value ([3]; mice treated P12 to P16) was “no significant difference” and the “levels of Bcl-xL in femurs (IHC)” value ([3]; mice treated P12 to P16) was “No change”. For the same compound, the “expression levels of Gli1 in femurs (IHC)” value ([3]; mice treated P12 to P16, compared with Vehicle) was “no alteration”.
